{
  "source": "patent US9765294B2",
  "about": "(priority 2013, dated 2017)",
  "key": {"[1]": {"test_system": "B. pertussis", "type": "cell-based, Bordetella pertussis", "conditions": "for Growth: 53 h; for Biomass yield after 53 h: sole sulfur source, 35° C.; for Support of growth as the sole source of sulfur: medium containing no other S source"}, "[2]": {"test_system": "B. pertussis", "type": "cell-based, Bordetella pertussis"}, "[3]": {"test_system": "B. pertussis", "experiment": "Growth in minimal media containing only one amino acid, shake-flasks", "type": "cell-based, Bordetella pertussis", "conditions": "L-cysteine 125 mM as single amino acid, no thiosulfate added", "description": "Assays were performed in order to determine whether growth of B. pertussis is possible in minimal media containing a single amino acid as the sole source of carbon and nitrogen. A shake-flask containing 7.5 ml fresh medium (B-CDM containing 0.604 g/L niacin) was inoculated with 10^9 B. pertussis CFUs and incubated at 35° C. (+/−1° C.) and 150 rpm for 24 h (+/−5 h). Cells were harvested by centrifugation, washed twice with NaCl 0.9% (w/v), and resuspended in fresh medium (see composition in Table 12) at a theoretical OD650 nm of 0.5, as calculated from the OD650 nm of the culture before harvest. 1 ml of this cell suspension was used to inoculate shake-flasks containing 30 ml of the medium in Table 12, supplemented with a single amino acid (L-cysteine 125 mM, L-proline 125 mM, L-glutamate 125 mM, L-glutamine 125 mM, L-aspartate 30 mM, L-asparagine 125 mM, L-serine 125 mM, or L-alanine 125 mM) as a source of C and N, and thiosulfate 0.25 mM as a source of S (except for L-Cys supplementation, where no thiosulfate was added). The same medium with ammonium chloride (25 mM) and thiosulfate (0.25 mM), but no amino acid, was used as a negative control. The shake flasks were then incubated for approximately 10 days at 35° C. under constant shaking (150 rpm). Growth was monitored as OD650 nm."}, "[4]": {"test_system": "Bordetella pertussis", "type": "cell-based"}, "[5]": {"conditions": "buffer 2.5 g/L, relative to Tris control"}, "[6]": {"conditions": "buffer 5.0 g/L, relative to Tris control"}, "[7]": {"conditions": "buffer 10.0 g/L, relative to Tris control"}, "[8]": {"conditions": "buffer 20.0 g/L, relative to Tris control"}, "[9]": {"conditions": "buffer 6.1 g/L, control conditions"}},
  "note": "Like-named read-outs stand apart in the source and are kept apart here.",
  "data": [
    {"compound": "O=S(O)(O)=S", "note": "[disodium thiosulfate]", "values": [
      {"measurement": "Growth", "setting": "[1]; 1 mM in medium", "result": "+"},
      {"measurement": "Biomass yield after 53 h", "setting": "[1]; 1 mM in medium", "result": 0.227, "unit": "OD650nm"},
      {"measurement": "Growth", "setting": "[1]; 12 mM in medium", "result": "+"},
      {"measurement": "Biomass yield after 53 h", "setting": "[1]; 12 mM in medium", "result": 0.472, "unit": "OD650nm"},
      {"measurement": "Support of growth as the sole source of sulfur", "setting": "[1]", "result": "growth was observed"}
    ]},
    {"compound": "O=P(O)(O)OC(CO)CO", "note": "[β-glycerophosphate]", "values": [
      {"measurement": "Support of growth as buffer in B-CDM", "setting": "[2]", "result": "able to support growth"},
      {"measurement": "Relative biomass yield after 24 h", "setting": "[2]; [5]", "result": 88, "unit": "%"},
      {"measurement": "Relative biomass yield after 48 h", "setting": "[2]; [5]", "result": 79, "unit": "%"},
      {"measurement": "Relative biomass yield after 24 h", "setting": "[2]; [6]", "result": 89, "unit": "%"},
      {"measurement": "Relative biomass yield after 48 h", "setting": "[2]; [6]", "result": 67, "unit": "%"},
      {"measurement": "Relative biomass yield after 24 h", "setting": "[2]; [7]", "result": 68, "unit": "%"},
      {"measurement": "Relative biomass yield after 48 h", "setting": "[2]; [7]", "result": 59, "unit": "%"},
      {"measurement": "Relative biomass yield after 24 h", "setting": "[2]; [8]", "result": 46, "unit": "%"},
      {"measurement": "Relative biomass yield after 48 h", "setting": "[2]; [8]", "result": 45, "unit": "%"}
    ]},
    {"compound": "O=S(=O)([O-])[O-].[Na+].[Na+]", "note": "[disodium sulfate]", "values": [
      {"measurement": "Growth", "setting": "[1]; 12 mM in medium", "result": "−"},
      {"measurement": "Biomass yield after 53 h", "setting": "[1]; 12 mM in medium", "result": 0.015, "unit": "OD650nm"},
      {"measurement": "Support of growth as the sole source of sulfur", "setting": "[1]", "result": "not able to support growth"}
    ]},
    {"compound": "O=S(=O)(O)CCCN1CCOCC1", "note": "[MOPS, 3-(N-morpholino)propanesulfonic acid]", "values": [
      {"measurement": "Support of growth as buffer in B-CDM", "setting": "[2]", "result": "able to support growth"},
      {"measurement": "Relative biomass yield after 24 h", "setting": "[2]; [5]", "result": 114, "unit": "%"},
      {"measurement": "Relative biomass yield after 48 h", "setting": "[2]; [5]", "result": 91, "unit": "%"},
      {"measurement": "Relative biomass yield after 24 h", "setting": "[2]; [6]", "result": 85, "unit": "%"},
      {"measurement": "Relative biomass yield after 48 h", "setting": "[2]; [6]", "result": 88, "unit": "%"},
      {"measurement": "Relative biomass yield after 24 h", "setting": "[2]; [7]", "result": 111, "unit": "%"},
      {"measurement": "Relative biomass yield after 48 h", "setting": "[2]; [7]", "result": 84, "unit": "%"},
      {"measurement": "Relative biomass yield after 24 h", "setting": "[2]; [8]", "result": 81, "unit": "%"},
      {"measurement": "Relative biomass yield after 48 h", "setting": "[2]; [8]", "result": 76, "unit": "%"}
    ]},
    {"compound": "N[C@@H](CS)C(=O)O", "note": "[L-cysteine]", "values": [
      {"measurement": "Growth", "setting": "[1]; 27 mM in medium", "result": "+"},
      {"measurement": "Biomass yield after 53 h", "setting": "[1]; 27 mM in medium", "result": 0.512, "unit": "OD650nm"},
      {"measurement": "Need for an additional source of sulfur", "setting": "[3]", "result": "no additional source of sulfur was required"}
    ]},
    {"compound": "O=S([O-])[O-].[Na+].[Na+]", "note": "[disodium sulfite]", "values": [
      {"measurement": "Growth", "setting": "[1]; 1 mM in medium", "result": "−"},
      {"measurement": "Biomass yield after 53 h", "setting": "[1]; 1 mM in medium", "result": 0.011, "unit": "OD650nm"},
      {"measurement": "Biomass yield after 53 h", "setting": "[1]; 12 mM in medium", "result": 0.007, "unit": "OD650nm"},
      {"measurement": "Support of growth as the sole source of sulfur", "setting": "[1]", "result": "not able to support growth"}
    ]},
    {"compound": "tris(hydroxymethyl)aminomethane", "values": [
      {"measurement": "Relative biomass yield after 24 h", "setting": "[2]; [9]", "result": 100, "unit": "%"},
      {"measurement": "Relative biomass yield after 48 h", "setting": "[2]; [9]", "result": 100, "unit": "%"}
    ]},
    {"compound": "[Cl][Cu][Cl]", "note": "[CuCl2]", "values": [
      {"measurement": "Biomass yield", "setting": "[4]", "result": "significant increase"}
    ]}
  ]
}
